Patent US12371454B2, “Cyclic peptide compound having Kras inhibitory action” (priority 2019, dated 2025)
Starred links: 1 amine or outer side, 2 acyl side, 3 side chain; linkers in the order of their positions; H or OH if unused. Positions of bridges follow the written chain, without caps; N, C: chain ends. Non-standard residues stand in square brackets, D forms with d. Residues, ends and D or L forms follow the SMILES beside them. *: point of attachment. NMeAbu(3,3-F2-piperidino) = CN[C@@H](CCN1CCCC(F)(F)C1)C(=O)O; hPhe(3-Cl-4-CF3) = N[C@@H](CCc1ccc(C(F)(F)F)c(Cl)c1)C(=O)O; NMePhe(4-CN) = CN[C@@H](Cc1ccc(C#N)cc1)C(=O)O; NMePhe(3-Me) = CN[C@@H](Cc1cccc(C)c1)C(=O)O; NMePhe(4-Me) = CN[C@@H](Cc1ccc(C)cc1)C(=O)O; hPhe(4-Cl) = N[C@@H](CCc1ccc(Cl)cc1)C(=O)O; NMedβ3hAla = C[C@H](CC(=O)[*:2])N(C)[*:1]; NMeAla(cPent) = CN[C@@H](CC1CCCC1)C(=O)O; NMeGly(cPent) = CN[C@H](C(=O)O)C1CCCC1; NMeGly(cBu) = CN[C@H](C(=O)O)C1CCC1; NMeCha = CN[C@@H](CC1CCCCC1)C(=O)O; NMeCba = CN[C@@H](CC1CCC1)C(=O)O; NMeChg = CN[C@H](C(=O)O)C1CCCCC1; NMeI = CC[C@H](C)[C@H](NC)C(=O)O; NMeD = CN[C@@H](CC(=O)O)C(=O)O; NMeL = CN[C@@H](CC(C)C)C(=O)O; NMeV = CN[C@H](C(=O)O)C(C)C; d(β3hA) = C[C@@H](N)CC(=O)O; NMeS = CN[C@@H](CO)C(=O)O; Morpholide = C1CN(*)CCO1; NMeA = CN[C@@H](C)C(=O)O; Piperidide = C1CCN(*)CC1; Ac5c = NC1(C(=O)O)CCCC1; Aze = O=C(O)[C@@H]1CCN1; Cyclobutyl = C1CC(*)C1; Sar = CNCC(=O)O

What was measured:
[1] = target: T1, Kras and SOS1 (biotin-tagged human Kras loaded with GDP, His-tagged human SOS1) (Homo sapiens, UniProt P01116, G12D); assay: Protein-protein interaction inhibition between Kras and SOS1 (KrasGl2D-SOS PPI) using AlphaScreen; assay type: binding; conditions: AlphaScreen; biotin-tagged human Kras loaded with GDP, His-tagged human SOS1; read-out: KRAS G12D-SOS PPI IC50
T1 construct: made in house; host or cells: E. coli (stated for Kras only)
How it was run: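 AlphaScreen format: Ni donor beads capture His-SOS1, streptavidin acceptor beads capture biotinylated Kras (E. coli-expressed, GDP-loaded post-purification). Excite 680 nm, read 520-620 nm.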

[2] = tested on: Human pancreatic cancer cell line AsPC-1; assay: Measurement of AsPC-1 cell growth inhibition (AsPC-1 CGI); assay type: cell-based; conditions: 96 h
How it was run: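 AsPC-1 cells in 15% FBS RPMI-1640 were exposed to test compound for 96 hours at 37° C, with CellTiter-Glo as endpoint.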

T1 sequence (P01116 1-188 isoform P01116-2 G12D): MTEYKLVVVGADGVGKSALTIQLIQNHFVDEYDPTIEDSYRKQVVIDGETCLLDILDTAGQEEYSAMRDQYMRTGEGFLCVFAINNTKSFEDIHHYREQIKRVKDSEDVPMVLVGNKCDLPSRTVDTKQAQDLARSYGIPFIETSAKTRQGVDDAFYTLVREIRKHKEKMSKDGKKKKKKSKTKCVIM

| Structure (SMILES) | IC50 [1] [nM] | IC50 [2] [nM] |
| --- | --- | --- |
| CC[C@H](C)[C@@H]1NC(=O)[C@H](CC(C)C)N(C)C(=O)C[C@@H](C(=O)N2CCCCC2)N(C)C(=O)[C@H](C(C)C)N(C)C(=O)C2(CCCC2)NC(=O)[C@@H]2CCCN2C(=O)[C@H](CCc2ccc(C(F)(F)F)c(Cl)c2)NC(=O)CN(C)C(=O)[C@H](COC2CCC2)N(C)C(=O)[C@@H]2CCN2C(=O)[C@H](C)N(C)C1=O [Compound 880] ([NMeL]I[NMeA][Aze][NMeS](Cyclobutyl)[Sar][hPhe(3-Cl-4-CF3)]P[Ac5c][NMeV][NMeD]-Piperidide; lactam N-11) | 2.9 | 100 to 500 |
| CC[C@H](C)[C@@H]1NC(=O)[C@H](CC(C)C)N(C)C(=O)C[C@@H](C)N(C)C(=O)[C@H](C(C)C)N(C)C(=O)C2(CCCC2)NC(=O)[C@@H]2CCCN2C(=O)[C@H](CCc2ccc(C(F)(F)F)c(Cl)c2)NC(=O)CN(C)C(=O)[C@H](Cc2ccc(C#N)cc2)N(C)C(=O)CN(C)C(=O)CN(C)C1=O [Compound 888] (cyclo([Ac5c][NMeV][NMedβ3hAla][NMeL]I[Sar][Sar][NMePhe(4-CN)][Sar][hPhe(3-Cl-4-CF3)]P)) | 3.9 | 100 to 500 |
| CC[C@H](C)[C@@H]1NC(=O)[C@H](C2CCC2)N(C)C(=O)C[C@@H](C(=O)N2CCOCC2)N(C)C(=O)[C@H](C2CCCCC2)N(C)C(=O)C2(CCCC2)NC(=O)[C@@H]2CCCN2C(=O)[C@H](CCc2ccc(C(F)(F)F)c(Cl)c2)NC(=O)CN(C)C(=O)[C@H](CC2CCCCC2)N(C)C(=O)CN(C)C(=O)CN(C)C1=O [Compound 890] ([NMeGly(cBu)]I[Sar][Sar][NMeCha][Sar][hPhe(3-Cl-4-CF3)]P[Ac5c][NMeChg][NMeD]-Morpholide; lactam N-11) | 0.47 | 20 to 50 |
| CC[C@H](C)[C@@H]1NC(=O)[C@H](CC(C)C)N(C)C(=O)C[C@@H](C(=O)N2CCCCC2)N(C)C(=O)[C@H](C(C)C)N(C)C(=O)C2(CCCC2)NC(=O)[C@@H]2CCCN2C(=O)[C@H](CCc2ccc(Cl)cc2)NC(=O)CN(C)C(=O)[C@H](CC2CCCCC2)N(C)C(=O)CN(C)C(=O)CN(C)C1=O [Compound 893] ([NMeL]I[Sar][Sar][NMeCha][Sar][hPhe(4-Cl)]P[Ac5c][NMeV][NMeD]-Piperidide; lactam N-11) | 21 | 100 to 500 |
| CC[C@H](C)[C@@H]1NC(=O)[C@H](CC2CCCC2)N(C)C(=O)C[C@@H](C)NC(=O)[C@H](C(C)C)N(C)C(=O)C2(CCCC2)NC(=O)[C@@H]2CCCN2C(=O)[C@H](CCc2ccc(C(F)(F)F)c(Cl)c2)NC(=O)CN(C)C(=O)[C@H](CC2CCCCC2)N(C)C(=O)CN(C)C(=O)CN(C)C1=O [Compound 901] (cyclo([Ac5c][NMeV][d(β3hA)][NMeAla(cPent)]I[Sar][Sar][NMeCha][Sar][hPhe(3-Cl-4-CF3)]P)) | 35 | 100 to 500 |
| CC[C@H](C)[C@@H]1NC(=O)[C@H](CC(C)C)N(C)C(=O)C[C@@H](C)N(C)C(=O)[C@H]([C@@H](C)CC)N(C)C(=O)C2(CCCC2)NC(=O)[C@@H]2CCCN2C(=O)[C@H](CCc2ccc(C(F)(F)F)c(Cl)c2)NC(=O)CN(C)C(=O)[C@H](CC2CCCCC2)N(C)C(=O)CN(C)C(=O)CN(C)C1=O [Compound 904] (cyclo([Ac5c][NMeI][NMedβ3hAla][NMeL]I[Sar][Sar][NMeCha][Sar][hPhe(3-Cl-4-CF3)]P)) | 7.3 | 50 to 100 |
| CC[C@H](C)[C@@H]1NC(=O)[C@H](CC(C)C)N(C)C(=O)C[C@@H](C(=O)N(C)C)N(C)C(=O)[C@H](C2CCCC2)N(C)C(=O)C2(CCCC2)NC(=O)[C@H](CCN2CCCC(F)(F)C2)N(C)C(=O)[C@H](CCc2ccc(C(F)(F)F)c(Cl)c2)NC(=O)CN(C)C(=O)[C@H](CC2CCCCC2)N(C)C(=O)[C@@H]2CCN2C(=O)[C@H](C)N(C)C1=O [Compound 910] ([NMeL]I[NMeA][Aze][NMeCha][Sar][hPhe(3-Cl-4-CF3)][NMeAbu(3,3-F2-piperidino)][Ac5c][NMeGly(cPent)][NMeD]-NMe2; lactam N-11) | 4.3 | 100 to 500 |
| CC[C@H](C)[C@@H]1NC(=O)[C@H](CC2CCC2)N(C)C(=O)C[C@@H](C(=O)N2CCCCC2)N(C)C(=O)[C@H](C(C)C)N(C)C(=O)C2(CCCC2)NC(=O)[C@@H]2CCCN2C(=O)[C@H](CCc2ccc(C(F)(F)F)c(Cl)c2)NC(=O)CN(C)C(=O)[C@H](CC2CCCCC2)N(C)C(=O)CN(C)C(=O)CN(C)C1=O [Compound 911] ([NMeCba]I[Sar][Sar][NMeCha][Sar][hPhe(3-Cl-4-CF3)]P[Ac5c][NMeV][NMeD]-Piperidide; lactam N-11) | 4.5 | 100 to 500 |
| CC[C@H](C)[C@@H]1NC(=O)[C@H](CC(C)C)N(C)C(=O)C[C@@H](C(=O)N(C)C)N(C)C(=O)[C@H]([C@@H](C)CC)N(C)C(=O)C2(CCCC2)NC(=O)[C@H](Cc2cccc(C)c2)N(C)C(=O)[C@H](CCc2ccc(C(F)(F)F)c(Cl)c2)NC(=O)CN(C)C(=O)[C@H](Cc2ccc(C)cc2)N(C)C(=O)[C@@H]2CCN2C(=O)[C@H](C)N(C)C1=O [Compound 912] ([NMeL]I[NMeA][Aze][NMePhe(4-Me)][Sar][hPhe(3-Cl-4-CF3)][NMePhe(3-Me)][Ac5c][NMeI][NMeD]-NMe2; lactam N-11) | 12 | 50 to 100 |
